structure (smiles),measurement,value
Cc1ccc(CN2CCOCC2)cn1,melting point,51 to 52 °C
